In ChEMBL document CHEMBL1125116 (J Med Chem, 1990):

Molecular target: D(2) dopamine receptor (Rattus norvegicus, UniProt P61169)
Assay: Evaluated in vitro for the affinity towards Dopamine receptor D2 of rat striatal tissue

Sequence of D(2) dopamine receptor (P61169 whole entry): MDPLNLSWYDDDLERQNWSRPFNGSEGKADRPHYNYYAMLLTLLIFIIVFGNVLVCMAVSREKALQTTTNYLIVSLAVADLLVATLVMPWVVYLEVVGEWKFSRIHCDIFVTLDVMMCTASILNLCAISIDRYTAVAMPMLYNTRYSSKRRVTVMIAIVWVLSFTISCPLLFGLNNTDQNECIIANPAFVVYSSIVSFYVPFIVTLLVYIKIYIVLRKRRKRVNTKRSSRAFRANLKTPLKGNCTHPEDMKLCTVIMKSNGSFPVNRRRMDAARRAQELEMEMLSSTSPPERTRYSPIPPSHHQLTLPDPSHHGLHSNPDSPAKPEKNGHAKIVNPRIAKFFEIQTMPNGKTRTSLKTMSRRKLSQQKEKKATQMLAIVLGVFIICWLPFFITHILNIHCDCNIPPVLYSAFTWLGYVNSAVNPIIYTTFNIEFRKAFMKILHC

For `O=C(CCCN1CCC2(CC1)C(=O)NCN2c1ccccc1)c1ccc(F)cc1I`, the Kd was 0.25 nM.
